Experimental data reported in patent EP4603105A1, “PHARMACEUTICAL COMPOSITION CONTAINING CYCLIC COMPOUND HAVING SELECTIVE KRAS INHIBITORY EFFECT AGAINST HRAS AND NRAS” (CHUGAI SEIYAKU KABUSHIKI KAISHA, priority 2022, dated 2024).
Like-named read-outs stand apart in the source and are kept apart here.

Key:
HRAS wild-type protein = HRAS wild-type protein (Homo sapiens, UniProt P01112); experiment: Binding to HRAS by surface plasmon resonance (SPR), KD and KD ratio to KRAS
How it was run: (§1)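 Recombinant RAS proteins bearing a biotinylated Avi tag and loaded with GDP served as the captured ligand, recaptured fresh every cycle. Binding responses were referenced to an uncoated surface and a buffer-only blank cycle. Dissociation constants were obtained by 1:1 model fitting at 30°C.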

[1] = tested on: human lung cancer strain NCI-H441; experiment: NCI-H441 cell proliferation inhibitory activity (CellTiter-Glo, 4 days); type: cell-based; conditions: read-out: NCl-H441 IC50
How it was run: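 Signal came from […] measured per well once the reagent was added. Beforehand, cells were cultured at 37°C and 5% carbon dioxide on a compound series serially diluted in dimethyl sulfoxide.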

[2] = biological target: GDP-bound KRAS wild-type protein (Homo sapiens, UniProt P01116); experiment: Binding to KRAS by surface plasmon resonance (SPR), dissociation constant KD
GDP-bound KRAS wild-type protein, sequence (P01116 1-188 isoform P01116-2): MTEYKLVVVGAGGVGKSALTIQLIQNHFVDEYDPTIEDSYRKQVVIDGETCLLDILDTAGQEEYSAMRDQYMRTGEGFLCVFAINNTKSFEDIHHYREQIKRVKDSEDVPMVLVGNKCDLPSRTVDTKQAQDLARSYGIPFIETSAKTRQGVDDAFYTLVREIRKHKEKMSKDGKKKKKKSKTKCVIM
How it was run: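 Compound binding is evaluated by SPR single-cycle kinetics, with concentrations added intermittently from low to high for 75 s each. Target surfaces carry GDP-loaded biotinylated Avi-RAS at about 100–300 RU, regenerated after each cycle; temperature 30°C. A 1:1 binding model gives KD.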

[3] = biological target: GDP-bound NRAS wild-type protein (Homo sapiens, UniProt P01111); experiment: Binding to NRAS by surface plasmon resonance (SPR), KD and KD ratio to KRAS
GDP-bound NRAS wild-type protein, sequence (P01111 whole entry): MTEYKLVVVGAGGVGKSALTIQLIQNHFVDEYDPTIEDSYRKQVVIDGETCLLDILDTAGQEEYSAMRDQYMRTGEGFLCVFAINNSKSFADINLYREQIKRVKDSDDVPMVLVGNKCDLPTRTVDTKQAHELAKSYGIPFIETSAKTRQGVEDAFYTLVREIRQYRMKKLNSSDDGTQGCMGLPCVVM
How it was run: as §1

[4] = ratio of KD for HRAS wild-type protein to KD for KRAS
[5] = ratio of KD for GDP-bound NRAS wild-type protein to KD for KRAS
[6] = ratio of KD with respect to HRAS wild-type protein to KD with respect to KRAS
[7] = 50% proliferation inhibitory concentration, four days
[8] = Single Cycle Kinetics, 1:1 binding model
[9] = ratio of KD with respect to GDP-bound NRAS wild-type protein to KD with respect to KRAS

HRAS wild-type protein, sequence (P01112 whole entry): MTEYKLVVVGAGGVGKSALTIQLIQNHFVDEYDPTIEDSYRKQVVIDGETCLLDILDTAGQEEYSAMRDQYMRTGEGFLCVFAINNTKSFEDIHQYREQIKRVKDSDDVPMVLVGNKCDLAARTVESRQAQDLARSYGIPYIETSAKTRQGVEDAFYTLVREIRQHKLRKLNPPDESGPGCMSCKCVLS

Structure (SMILES) | HRAS /KRAS (HRAS wild-type protein; [4]) | IC50 ([1]; NCI-H441 cells, 4 days) [nM] | Kd ([2]; 1:1 binding model) [nM] | NRAS /KRAS [3, 5] | HRAS /KRAS (HRAS wild-type protein; [6]) | IC50 [1, 7] [nM] | Kd [2, 8] [nM] | NRAS /KRAS [3, 9] | Kd ([2]; Single Cycle Kinetics) [nM]
CCOC[C@H]1C(=O)N[C@@H]([C@@H](C)CC)C(=O)N(C)CC(=O)N(C)[C@H]2C/C=C\CCN(C2=O)[C@@H](Cc2ccc(C(F)(F)F)cc2)C(=O)N(C)CC(=O)N[C@@H](CCc2ccc(Cl)c(Cl)c2)C(=O)N2C[C@H](OCC)C[C@H]2C(=O)NC2(CC(C)(C)C2)C(=O)N(C)[C@@H](CC2CCC2)C(=O)N(C)[C@H](C(=O)N(C)C)CC(=O)N1C [PP2767] | A (a compound having 10 or more and less than 20 is denoted as A) | 62.6 | 0.49 | A (a compound having 10 or more and less than 20 is denoted as A) |  |  |  |  | 
CC[C@H](C)[C@@H]1NC(=O)[C@H](CC2CC2)N(C)C(=O)C[C@@H](C(=O)N(C)C)N(C)C(=O)[C@H](C2CCCC2)N(C)C(=O)C2(CCC2)NC(=O)[C@H](CCC(F)F)N(C)C(=O)[C@H](CCc2cc(F)c(C(F)(F)F)c(F)c2)NC(=O)CN(C)C(=O)[C@H](Cc2ccc(C(F)(F)F)cc2)N2CC/C=C\C[C@@H](C2=O)N(C)C(=O)CN(C)C1=O [PP1402] |  |  |  |  | A (a compound having 10 or more and less than 20 is denoted as A) | 82 | 0.3 | A (a compound having 10 or more and less than 20 is denoted as A) | 
CCO[C@@H]1C[C@H]2C(=O)NC3(CCC3)C(=O)N(C)[C@@H](C3CCCC3)C(=O)N(C)[C@H](C(=O)N3CCOCC3)CC(=O)N(C)[C@@H](CC(C)C)C(=O)N[C@@H]([C@@H](C)CC)C(=O)N(C)CC(=O)N(C)[C@H]3C/C=C\CCN(C3=O)[C@@H](Cc3ccc(C(F)(F)F)cc3)C(=O)N(C)CC(=O)N[C@@H](CCc3cc(F)c(C(F)(F)F)c(F)c3)C(=O)N2C1 [PP1282] |  |  |  |  | A (a compound having 10 or more and less than 20 is denoted as A) | 12.3 | 0.2 | A (a compound having 10 or more and less than 20 is denoted as A) | 
CCO[C@@H]1C[C@H]2C(=O)NC3(CCC3)C(=O)N(C)[C@@H](C3CCCC3)C(=O)N(C)[C@H](C(=O)N(C)C)CC(=O)N(C)[C@@H](Cc3ccccc3C#N)C(=O)N[C@@H]([C@@H](C)CC)C(=O)N(C)CC(=O)N(C)[C@H]3CCCCCN(C3=O)[C@@H](Cc3ccc(F)cc3)C(=O)N(C)CC(=O)N[C@@H](CCc3cc(F)c(C(F)(F)F)c(F)c3)C(=O)N2C1 [PP1155] |  |  |  |  | B (a compound having 3 or more and less than 10 is denoted as B) | 73.1 | 0.15 | B (a compound having 3 or more and less than 10 is denoted as B) | 
CCOC[C@H]1C(=O)N[C@@H]([C@@H](C)CC)C(=O)N(C)CC(=O)N(C)[C@H]2C/C=C\CCN(C2=O)[C@@H](Cc2ccc(C)cc2)C(=O)N(C)CC(=O)N[C@@H](CCc2ccc(C(F)(F)F)c(Cl)c2)C(=O)N2C[C@H](OCC)C[C@H]2C(=O)NC2(CC(C)(C)C2)C(=O)N(C)[C@@H](C2CCCC2)C(=O)N(C)[C@H](C(=O)N(C)C)CC(=O)N1C [PP2395] | B (a compound having 3 or more and less than 10 is denoted as B) | 6.3 | 0.072 | A (a compound having 10 or more and less than 20 is denoted as A) |  |  |  |  | 
CCC[C@H]1C(=O)N[C@@H]([C@@H](C)CC)C(=O)N2CCCC[C@H]2C(=O)N(C)[C@H]2C/C=C\CCN(C2=O)[C@@H](Cc2ccc(C(F)(F)F)cc2)C(=O)N(C)CC(=O)N[C@@H](CCc2ccc(C(F)(F)F)c(OC)c2)C(=O)N2C[C@H](OCC)C[C@H]2C(=O)N(C)C2(CCC2)C(=O)N(C)[C@@H](C2CCCC2)C(=O)N(C)[C@H](C(=O)N(C)C)CC(=O)N1C [PP3270] | B (a compound having 3 or more and less than 10 is denoted as B) | 13.9 |  | A (a compound having 10 or more and less than 20 is denoted as A) |  |  |  |  | 0.43
CCO[C@@H]1C[C@H]2C(=O)NC3(CCC3)C(=O)N(C)[C@@H](C3CCCC3)C(=O)N(C)[C@H](C(=O)N(C)C)CC(=O)N(C)[C@@H](CC3CCCC3)C(=O)N[C@@H]([C@@H](C)CC)C(=O)N(C)CC(=O)N(C)[C@H]3C/C=C\CCN(C3=O)[C@@H](CC3CCC(F)(F)CC3)C(=O)N(C)CC(=O)N[C@@H](CCc3cc(F)c(C(F)(F)F)c(F)c3)C(=O)N2C1 [PP1458] |  |  |  |  | A (a compound having 10 or more and less than 20 is denoted as A) | 18.2 | 0.15 | A (a compound having 10 or more and less than 20 is denoted as A) | 
CCCO[C@@H]1C[C@H]2C(=O)NC3(CC(C)(C)C3)C(=O)N(C)[C@@H](C3CCCC3)C(=O)N(C)[C@H](C(=O)N(C)CC)CC(=O)N(C)[C@@H](COCC)C(=O)N[C@@H]([C@@H](C)CC)C(=O)N3CCC[C@H]3C(=O)N(C)[C@H]3C/C=C\CCN(C3=O)[C@@H](Cc3ccc(C(F)(F)F)cc3)C(=O)N(C)CC(=O)N[C@@H](CCc3ccc(C(F)(F)F)c(Cl)c3)C(=O)N2C1 [PP3405] | A (a compound having 10 or more and less than 20 is denoted as A) | 40.5 |  | A (a compound having 10 or more and less than 20 is denoted as A) |  |  |  |  | 1.5
CCO[C@@H]1C[C@H]2C(=O)NC3(CCC3)C(=O)N(C)[C@@H](C3CCCC3)C(=O)N(C)[C@H](C(=O)N3CCOCC3)CC(=O)N(C)[C@@H](CC(C)C)C(=O)N[C@@H]([C@@H](C)CC)C(=O)N3CC[C@H]3C(=O)N(C)[C@H]3CC[C@@H](C)CN(C3=O)[C@@H](Cc3ccc(C(F)(F)F)cc3)C(=O)N(C)CC(=O)N[C@@H](CCc3ccc(C(F)(F)F)c(Cl)c3)C(=O)N2C1 [PP1379] |  |  |  |  | B (a compound having 3 or more and less than 10 is denoted as B) | 10.3 | 0.29 | A (a compound having 10 or more and less than 20 is denoted as A) | 
CCCO[C@@H]1C[C@H]2C(=O)NC3(CC(C)(C)C3)C(=O)N(C)[C@@H](C3CCCC3)C(=O)N(C)[C@H](C(=O)N(C)CC)CC(=O)N(C)[C@@H](COCC)C(=O)N[C@@H]([C@@H](C)CC)C(=O)N3C[C@@H](C)C[C@H]3C(=O)N(C)[C@H]3C/C=C\CCN(C3=O)[C@@H](Cc3ccc(C)cc3)C(=O)N(C)CC(=O)N[C@@H](CCc3ccc(C(F)(F)F)c(Cl)c3)C(=O)N2C1 [PP3464] | A (a compound having 10 or more and less than 20 is denoted as A) | 162 |  | A (a compound having 10 or more and less than 20 is denoted as A) |  |  |  |  | 4
CCO[C@@H]1C[C@H]2C(=O)NC3(CCC3)C(=O)N(C)[C@@H](C3CCCC3)C(=O)N(C)[C@H](C(=O)N(C)C)CC(=O)N(C)[C@@H](CC3CC3)C(=O)N[C@@H]([C@@H](C)CC)C(=O)N(C)CC(=O)N(C)[C@H]3C/C=C\CCN(C3=O)[C@@H](Cc3ccc(C(F)(F)F)cc3)C(=O)N(C)CC(=O)N[C@@H](CCc3ccc(C(F)(F)F)c(OC)c3)C(=O)N2C1 [PP1247] |  |  |  |  | A (a compound having 10 or more and less than 20 is denoted as A) | 6.4 | 0.046 | A (a compound having 10 or more and less than 20 is denoted as A) | 
CCC(CC)[C@H]1C(=O)N(C)[C@H](C(=O)N(C)C)CC(=O)N(C)[C@@H](COC)C(=O)N[C@@H]([C@@H](C)CC)C(=O)N(C2CC2)CC(=O)N(C)[C@H]2C/C=C\CCN(C2=O)[C@@H](CC2CCCCC2)C(=O)N(C)CC(=O)N[C@@H](CCc2cc(F)c(C(F)(F)F)c(F)c2)C(=O)N2C[C@H](OC(C)C)C[C@H]2C(=O)NC2(CC(C)(C)C2)C(=O)N1C [PP2515] | A (a compound having 10 or more and less than 20 is denoted as A) | 384 | 5.1 | A (a compound having 10 or more and less than 20 is denoted as A) |  |  |  |  | 
CCO[C@@H]1C[C@H]2C(=O)NC3(CC(C)(C)C3)C(=O)N(C)[C@@H](C3CCCC3)C(=O)N(C)[C@H](C(=O)N(C)CC)CC(=O)N(C)[C@@H]([C@H](C)OC)C(=O)N[C@@H]([C@@H](C)CC)C(=O)N(C3CC3)CC(=O)N(C)[C@H]3C/C=C\CCN(C3=O)[C@@H](Cc3ccc(C(F)(F)F)cc3)C(=O)N(C)CC(=O)N[C@@H](CCc3cc(F)c(C(F)(F)F)c(F)c3)C(=O)N2C1 [PP3220] | A (a compound having 10 or more and less than 20 is denoted as A) | 25.7 |  | A (a compound having 10 or more and less than 20 is denoted as A) |  |  |  |  | 0.52
CCC[C@H]1C(=O)N[C@@H](C2CCCC2)C(=O)N(C)CC(=O)N(C)[C@H]2C/C=C\CCN(C2=O)[C@@H](Cc2ccc(C(F)(F)F)cc2)C(=O)N(C)CC(=O)N[C@@H](CCc2ccc(C(F)(F)F)c(Cl)c2)C(=O)N2CC3(CC3)C[C@H]2C(=O)N(C)C2(CCC2)C(=O)N(C)[C@@H](C(CC)CC)C(=O)N(C)[C@H](C(=O)N(C)C)CC(=O)N1C [PP3321] | A (a compound having 10 or more and less than 20 is denoted as A) | 8 |  | AA (a compound having 20 or more is denoted as AA) |  |  |  |  | 0.85
